Test results taken from patent US7468369B2, “Sulfonyl pyrrolidines, method for producing the same and their use as drugs” (Sanofi-Aventis, priority 2005, dated 2008).

system: human ABCA1 promoter; experiment: ABCA1 promoter test (luciferase reporter in stably transfected THP1 cell line); format: cell-based; conditions: Homo sapiens, THP-1; ABCA1 reporter cell line (THP1, PMA-differentiated), 24 h incubation, luciferase chemiluminescence; read-out: E50 ABCA1
Protocol: The potency of substances which activate expression of the human ABCA1 gene via its promoter is analyzed by using a stably transfected THP1 cell line (human monocyte cell line) which is referred to herein as ABCA1 reporter cell line. It contains a fragment, 3.2 kb in size and stably integrated into the genome, of the human ABCA1 promoter in front of a luciferase reporter element. Expression of the luciferase reporter gene is only low without addition of an ABCA1 expression activator. The substances stimulating ABCA1 expression bring about, via activation of the ABCA1 promoter, an enhanced expression of the luciferase reporter gene. The luciferase which is formed can be detected via an appropriate substrate by means of chemiluminescence.
Construction of the Cell Line
The ABCA1 reporter line was prepared as follows: firstly the neomycin resistance gene (Acc. No.: AJ000156) was introduced into the luciferase reporter plasmid pLG3basic (#1751, Promega) 3′ below the luciferase reporter element. Subsequently, an ABCA1 promoter fragment, 3.2 kb in size and amplified from human genomic DNA (#6550-1, Clontech) by the polymerase chain reaction, was cloned in 5′ above the luciferase reporter element. The reporter plasmid produced in this way was called pGL3BN-ABCA1P. Luciferase expression in this plasmid is controlled by the ABCA1 promoter. Cloning and sequencing of the construct took place in analogy to the description in Sambrook J et al. (Molecular cloning, Cold Spring Harbor Laboratory Press, 1989). For stable transfection into THP1 cells, firstly pGL3BN-ABCA1P was linearized with a restriction endonuclease and then introduced into the THP1 cells as stated in Ausubel, F. M. et al. (Current protocols in molecular biology, Vol. 1-3, John Wiley & Sons, Inc., 1995).
The activity of ABCA1 expression activators is determined in a 3-day test which is described below:
The ABCA1 reporter cell line comprises suspension cells. These are cultured until the concentration is 0.5×10^6 cells/ml in RPMI medium (#52400-025, Invitrogen) which is mixed with the following additions: 10% FCS (fetal calf serum; #16000-044, invitrogen), 0.5 mg/ml Geneticin (#10131-019, invitrogen) and 1% penicillin-streptomycin solution (#15140-122, invitrogen). The culturing takes place in standard cell culture flasks (#353112, Becton Dickinson) in a cell culture incubator at 37° C. in the presence of 5% CO2.
For the ABCA1 promoter test, the suspension cells are centrifuged at 1200 rpm in 50 ml tubes. The supernatant is aspirated off, and the pellet is resuspended in 15 ml of RPMI medium and counted in a cell counter. After dilution to 175 000 cells/ml, 0.1 μg/ml PMA (phorbol 12-myristate 13-acetate, #8139-5MG, Sigma) is added in order to induce differentiation of the monocytic THP1 suspension cells into adherent macrophages. 35 000 cells in each well are seeded in a 96-well microtiter plate with clear plastic base (#3610, Corning Costar). The plates are incubated in a cell culture incubator at 37° C. and 5% CO2 for 24 h.
The ABCA1 expression activators to be tested are dissolved in a concentration of 10 mM in DMSO. This stock solution is diluted in the RPMI medium (mixed with 0.1 μg/ml PMA) described above. Test substances are tested in 11 different concentrations in the range from […] to 330 pM. The medium of the ABCA1 reporter cell line seeded on day 1 is completely removed by aspiration and the diluted test substances are immediately added to the cells. The dilution and addition of the substances takes place with a pipetting robot (Beckman FX). The final volume of the test substances diluted in medium is 100 μl per well of a 96-well microtiter plate. The DMSO concentration in the test is less than 0.1% v/v in order to avoid cytotoxic effects of the solvent.
The test plates are incubated in an incubator at 37° C. and 5% CO2 for 24 h.
The ABCA1 reporter cells treated with the test substances are removed from the incubator and the medium is aspirated off. […]

CC(=O)c1ccc(N2CCN(C(=O)[C@@H]3CN(S(=O)(=O)c4cccs4)C[C@H]3c3ccccc3)CC2)cc1 (racemic) [Example 7, 1-(4-{4-[3,4-trans-4-Phenyl-1-(thiophene-2-sulfonyl)pyrrolidine-3-carbonyl]-piperazin-1-yl}phenyl)ethanone] and Cc1ccc(N2CCN(C(=O)[C@@H]3CN(S(=O)(=O)c4cccs4)C[C@H]3c3ccccc3)CC2)cc1C (racemic) [Example 42, [4-(3,4-Dimethylphenyl)piperazin-1-yl]-[3,4-trans-4-phenyl-1-(thiophene-2-sulfonyl)pyrrolidin-3-yl)methanone] are within 1.5-fold of each other in EC50: 13.2 µM for the first, 18.8 µM for the second.

First: COc1ccccc1N1CCN(C(=O)[C@@H]2CN(S(=O)(=O)c3cccs3)C[C@H]2c2ccccc2)CC1 (racemic) [Example 24, [4-(2-Methoxyphenyl)piperazin-1-yl]-[3,4-trans-4-phenyl-1-(thiophene-2-sulfonyl)pyrrolidin-3-yl]methanone]
Second: COc1ccccc1N1CCN(C(=O)[C@@H]2CN(S(=O)(=O)c3ccc(Cl)s3)C[C@H]2c2ccccc2)CC1 (racemic) [Example 26, [1-(5-Chlorothiophene-2-sulfonyl)-3,4-trans-4-phenylpyrrolidin-3-yl]-[4-(2-methoxyphenyl)piperazin-1-yl]methanone]
The EC50 of the first is 5.1-fold higher: 15 µM for the first, 2.94 µM for the second.

Going from COc1ccccc1N1CCN(C(=O)[C@@H]2CN(S(=O)(=O)c3cc(Br)c(Br)s3)C[C@H]2c2ccccc2)CC1 (racemic) [Example 25, [1-(4,5-Dibromothiophene-2-sulfonyl)-3,4-trans-4-phenylpyrrolidin-3-yl]-[4-(2-methoxyphenyl)piperazin-1-yl]methanone] to COc1ccccc1N1CCN(C(=O)[C@@H]2CN(S(=O)(=O)c3cc(Cl)c(Cl)s3)C[C@H]2c2ccccc2)CC1 (racemic) [Example 27, [1-(4,5-Dichlorothiophene-2-sulfonyl)-3,4-trans-4-phenylpyrrolidin-3-yl]-[4-(2-methoxyphenyl)piperazin-1-yl]methanone], the EC50 rises from 3.81 µM to 6.99 µM (1.8-fold). The first is the more potent here.

Going from COc1ccccc1N1CCN(C(=O)[C@@H]2CN(S(=O)(=O)c3sc4ccc(Cl)cc4c3C)C[C@H]2c2ccccc2)CC1 (racemic) [Example 29, [1-(5-Chloro-3-methylbenzo[b]thiophene-2-sulfonyl)-3,4-trans-4-phenyl-pyrrolidin-3-yl]-[4-(2-methoxyphenyl)piperazin-1-yl]methanone] to Cc1ccc(C)c(N2CCN(C(=O)[C@@H]3CN(S(=O)(=O)c4sc5ccc(Cl)cc5c4C)C[C@H]3c3ccccc3)CC2)c1 (racemic) [Example 51, [1-(5-Chloro-3-methylbenzo[b]thiophene-2-sulfonyl)-3,4-trans-4-phenyl-pyrrolidin-3-yl]-[4-(2,5-dimethylphenyl)piperazin-1-yl]methanone], the EC50 falls from 5.61 µM to 2.77 µM (2-fold).

Going from O=C([C@@H]1CN(S(=O)(=O)c2cccs2)C[C@H]1c1ccccc1)N1CCN(c2cccc(C(F)(F)F)c2)CC1 (racemic) [Example 30, [3,4-trans-4-Phenyl-1-(thiophene-2-sulfonyl)pyrrolidin-3-yl]-[4-(3-trifluoromethylphenyl)piperazin-1-yl]methanone] to O=C([C@@H]1CN(S(=O)(=O)c2ccc(Cl)s2)C[C@H]1c1ccccc1)N1CCN(c2cccc(C(F)(F)F)c2)CC1 (racemic) [Example 32, [1-(5-Chlorothiophene-2-sulfonyl)-3,4-trans-4-phenylpyrrolidin-3-yl]-[4-(3-trifluoromethylphenyl)piperazin-1-yl]methanone], the EC50 rises from 3.22 µM to 16.2 µM (5-fold). The first is the more potent here.

Going from O=C([C@@H]1CN(S(=O)(=O)c2cc(Br)c(Br)s2)C[C@H]1c1ccccc1)N1CCN(c2cccc(C(F)(F)F)c2)CC1 (racemic) [Example 31, [1-(4,5-Dibromothiophene-2-sulfonyl)-3,4-trans-4-phenylpyrrolidin-3-yl]-[4-(3-trifluoromethylphenyl)piperazin-1-yl]methanone] to O=C([C@@H]1CN(S(=O)(=O)c2cc(Cl)c(Cl)s2)C[C@H]1c1ccccc1)N1CCN(c2cccc(C(F)(F)F)c2)CC1 (racemic) [Example 33, [1-(4,5-Dichlorothiophene-2-sulfonyl)-3,4-trans-4-phenylpyrrolidin-3-yl]-[4-(3-trifluoromethylphenyl)piperazin-1-yl]methanone], the EC50 rises from 1.77 µM to 6.59 µM (3.7-fold). The first is the more potent here.

Cc1ccc(N2CCN(C(=O)[C@@H]3CN(S(=O)(=O)c4cccs4)C[C@H]3c3ccccc3)CC2)c(C)c1 (racemic) [Example 36, [4-(2,4-Dimethylphenyl)piperazin-1-yl]-[3,4-trans-4-phenyl-1-(thiophene-2-sulfonyl)pyrrolidin-3-yl]methanone] and Cc1ccc(N2CCN(C(=O)[C@@H]3CN(S(=O)(=O)c4ccc(Cl)s4)C[C@H]3c3ccccc3)CC2)c(C)c1 (racemic) [Example 38, [1-(5-Chlorothiophene-2-sulfonyl)-3,4-trans-4-phenylpyrrolidin-3-yl]-[4-(2,4-dimethylphenyl)piperazin-1-yl]methanone] are within 1.5-fold of each other in EC50: 3.6 µM for the first, 2.66 µM for the second.

Going from Cc1ccc(N2CCN(C(=O)[C@@H]3CN(S(=O)(=O)c4cc(Br)c(Br)s4)C[C@H]3c3ccccc3)CC2)c(C)c1 (racemic) [Example 37, [1-(4,5-Dibromothiophene-2-sulfonyl)-3,4-trans-4-phenylpyrrolidin-3-yl]-[4-(2,4-dimethylphenyl)piperazin-1-yl]methanone] to Cc1ccc(N2CCN(C(=O)[C@@H]3CN(S(=O)(=O)c4cc(Br)c(Br)s4)C[C@H]3c3ccccc3)CC2)cc1C (racemic) [Example 43, [1-(4,5-Dibromothiophene-2-sulfonyl)-3,4-trans-4-phenylpyrrolidin-3-yl]-[4-(3,4-dimethylphenyl)piperazin-1-yl]methanone], the EC50 rises from 2.57 µM to 4.08 µM (1.6-fold).

Compared with Cc1ccc(N2CCN(C(=O)[C@@H]3CN(S(=O)(=O)c4cc(Cl)c(Cl)s4)C[C@H]3c3ccccc3)CC2)c(C)c1 (racemic) [Example 39], Cc1ccc(C)c(N2CCN(C(=O)[C@@H]3CN(S(=O)(=O)c4cc(Cl)c(Cl)s4)C[C@H]3c3ccccc3)CC2)c1 (racemic) [Example 49, [1-(4,5-Dichlorothiophene-2-sulfonyl)-3,4-trans-4-phenylpyrrolidin-3-yl]-[4-(2,5-dimethylphenyl)piperazin-1-yl]methanone] is 1.9-fold lower in EC50: 3.73 µM for the first, 1.95 µM for the second. The second is the more potent here.

Going from Cc1ccc(N2CCN(C(=O)[C@@H]3CN(S(=O)(=O)c4ccc(Cl)s4)C[C@H]3c3ccccc3)CC2)cc1C (racemic) [Example 44, [1-(5-Chlorothiophene-2-sulfonyl)-3,4-trans-4-phenylpyrrolidin-3-yl]-[4-(3,4-dimethylphenyl)piperazin-1-yl]methanone] to Cc1ccc(C)c(N2CCN(C(=O)[C@@H]3CN(S(=O)(=O)c4ccc(Cl)s4)C[C@H]3c3ccccc3)CC2)c1 (racemic) [Example 48, [1-(5-Chlorothiophen-2-sulfonyl)-3,4-trans-4-phenylpyrrolidin-3-yl]-[4-(2,5-dimethylphenyl)piperazin-1-yl]methanone], the EC50 falls from 15.1 µM to 0.706 µM (21-fold).

Compared with Cc1ccc(N2CCN(C(=O)[C@@H]3CN(S(=O)(=O)c4cc(Cl)c(Cl)s4)C[C@H]3c3ccccc3)CC2)cc1C (racemic) [Example 45], COC(=O)c1cc(C)c(S(=O)(=O)N2C[C@@H](C(=O)N3CCN(c4cc(C)ccc4C)CC3)[C@H](c3ccccc3)C2)s1 (racemic) [Example 50, Methyl 5-{3,4-trans-3-[4-(2,5-dimethylphenyl)piperazine-1-carbonyl]-4-phenylpyrrolidine-1-sulfonyl}-4-methylthiophene-2-carboxylate] is 1.6-fold higher in EC50: 4.62 µM for the first, 7.34 µM for the second.
